From patent publication US8609083B1, “Method for controlling fungal pathogen with bacterial metabolite” (The United States of America, as represented by the …, priority 2007, dated 2013)

Tested on: F. effusum
Assay: Suppression of F. effusum sporulation on pecan terminal shoots
Type: in vivo, Fusicladosporium effusum
Conditions: 72 hours at 25° C.; for suppression of F. effusum sporulation, Abbott's formula relative to the acetone control: undiluted metabolites or fungicide products
Description: Dormant twigs with spore lesion constitute a primary source of scab infestation in pecan orchards. Scab disbursal via twig lesion sporulation occurs in early spring when temperatures are optimal. […] The shoots were selected for uniformity in diameter, cut into 5 cm segments, and placed into 1.5×10 cm test tubes.
Pecan shoots were sonicated for 30 minutes in 6 ml of 1% TWEEN 20 solution (polyoxyehtylene (20) sorbitan monolaurate). The number of spores released per lesion was counted via a hemocytometer. […]. A portion of the shoots were sonicated and counted prior to exposure to fungicidal treatments to verify that the shoots had not sporulated. The initial shoots lesions were designated as the baseline treatment.
Shoots were exposed to the following fungicidal treatments: undiluted metabolites derived from either P. luminescens (Hb) or X. bovienii (SN), and three chemical fungicide products used for control of F. effusum, i.e., dodine (Dodine 65W, 65% active ingredient, wettable powder, Platte Chemical Co. Greeley, Colo.), fenbuconazole (ENABLE 2F, 240 grams/liter active ingredient, flowable, Dow AgroSciences, Indianapolis Ind.), and triphenyltin hydroxide (SUPERTIN, 80% active ingredient, wettable powder, Griffin L. L. C., Valdosta, Ga.). The bacteria P. luminescens (Hb) was isolated from Heterorhabditis bacteriophora Poinar. The bacteria X. bovienii (SN) was isolated from Steinernema feltiae (Filipjev).
The shoots were also exposed to a water control and acetone control. Acetone was used as a solvent for the metabolites. The treatments were applied using an airbrush sprayer. The shoots were incubated at 25° C. for 72 hours, and exposed to sonification and quantification of spores. Ten replicate shoots for each treatment and the experiment was repeated once.

| SMILES | suppression of F. effusum sporulation, Abbott's formula relative to the acetone control | sporulation of F. effusum on pecan shoots relative to the acetone or water control (FIG. 3) |
| --- | --- | --- |
| CCCCCCCCCCCCNC(=N)N [dodine] | 49.6% |  |
| N#CC(CCc1ccc(Cl)cc1)(Cn1cncn1)c1ccccc1 (stereo not drawn) [fenbuconazole] | 80.4% |  |
| [OH][Sn]([c]1ccccc1)([c]1ccccc1)[c]1ccccc1 [triphenyltin hydroxide] |  | No effect was detected |
